The results in this text go back to ChEMBL document CHEMBL1165968, “IKKbeta inhibitors identification part II: ligand and structure-based virtual screening” (Bioorg Med Chem, 2010).

A value given as a limit tells only on which side of the number the result lay.

Broadly, the inhibition is how much of the control response was suppressed. A higher inhibition goes with a strong effect. By IC50 is commonly meant the midpoint of a concentration-inhibition curve. Higher therefore signals a need for much substance.

The target in test [1] is T1, Inhibitor of nuclear factor kappa-B kinase subunit beta (Homo sapiens) (UniProt O14920).
T1 sequence (whole entry): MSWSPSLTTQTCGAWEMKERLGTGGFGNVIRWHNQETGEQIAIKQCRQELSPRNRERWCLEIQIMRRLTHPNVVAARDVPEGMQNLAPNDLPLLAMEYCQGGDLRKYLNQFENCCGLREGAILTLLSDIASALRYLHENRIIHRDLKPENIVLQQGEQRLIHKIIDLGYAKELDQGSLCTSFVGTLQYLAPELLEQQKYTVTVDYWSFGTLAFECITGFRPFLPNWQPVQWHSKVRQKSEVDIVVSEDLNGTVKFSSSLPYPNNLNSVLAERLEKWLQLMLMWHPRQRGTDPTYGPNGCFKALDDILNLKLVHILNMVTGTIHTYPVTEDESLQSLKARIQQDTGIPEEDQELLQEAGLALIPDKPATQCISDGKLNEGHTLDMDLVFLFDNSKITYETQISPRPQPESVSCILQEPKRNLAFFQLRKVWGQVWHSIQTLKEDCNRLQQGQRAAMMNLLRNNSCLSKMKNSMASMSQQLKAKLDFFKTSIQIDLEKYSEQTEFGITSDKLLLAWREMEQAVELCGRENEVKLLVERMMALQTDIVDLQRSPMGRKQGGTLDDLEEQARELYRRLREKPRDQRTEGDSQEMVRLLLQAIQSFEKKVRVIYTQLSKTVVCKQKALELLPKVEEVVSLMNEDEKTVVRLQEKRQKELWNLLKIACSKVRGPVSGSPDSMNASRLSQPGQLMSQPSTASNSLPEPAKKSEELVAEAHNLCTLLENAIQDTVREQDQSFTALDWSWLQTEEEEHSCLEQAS
In words: Inhibition of IKK-beta at 10 uM by TR-FRET assay. (In TR-FRET formats the signal depends on donor and acceptor labels being close together.)

Test [2] deals with T2, Inhibitor of nuclear factor kappa-B kinase subunit beta (Homo sapiens, UniProt O14920).
T2 sequence (O14920 whole entry): T1 sequence (whole entry)
In words: Inhibition of IKK-beta by TR-FRET assay.

As for `COc1ccc(C(=O)Nc2nnc(CC(=O)N/N=C/c3ccc(O)c(OC)c3)s2)cc1`, in test [1], the inhibition is 53.1%. In test [2], this compound showed an IC50 of 10.8 µM.

In test [2], `N#Cc1c(C2CCCNC2)cc(-c2ccccc2O)nc1N` (stereo not drawn) yielded an IC50 of 0.174 µM. `CC1=NN(c2ccc(S(N)(=O)=O)cc2)C(=O)/C1=C/c1ccc(-c2ccc3c(c2)C(=O)NC3=O)o1` had an inhibition in test [1] of 84.8%. This compound had an IC50 in test [2] of 6.7 µM. Compound `COc1cc(/C=N/NC(=O)Cc2nnc(NC(=O)c3ccc([N+](=O)[O-])cc3)s2)ccc1O` showed an inhibition in test [1] of 76.4%. Further, the midpoint of inhibition in test [2], the IC50, lay at 6.98 µM. The compound `Cc1cc(N2CCC(O)CC2)nc2sc(C(N)=O)c(N)c12` gave an IC50 in test [2] below 1 µM.
